Source: US20080318943A1, “Compounds and Uses Thereof - 848” (ASTRAZENECA AB, priority 2007, published 2008)

Assays:
[1] = target: T1, GABAA receptor α2β3γ2 (Homo sapiens, UniProt P18507+P47869); experiment: Two-electrode voltage-clamp potentiation of GABA EC10 current in Xenopus oocytes, GABAA2; type: cell-based; conditions: percentage potentiation of GABA EC10 current divided by that of diazepam
T1 construct: expressed in transfected cells; host or cells: Xenopus laevis oocytes injected with cRNA
T1 sequence (P47869 29-451): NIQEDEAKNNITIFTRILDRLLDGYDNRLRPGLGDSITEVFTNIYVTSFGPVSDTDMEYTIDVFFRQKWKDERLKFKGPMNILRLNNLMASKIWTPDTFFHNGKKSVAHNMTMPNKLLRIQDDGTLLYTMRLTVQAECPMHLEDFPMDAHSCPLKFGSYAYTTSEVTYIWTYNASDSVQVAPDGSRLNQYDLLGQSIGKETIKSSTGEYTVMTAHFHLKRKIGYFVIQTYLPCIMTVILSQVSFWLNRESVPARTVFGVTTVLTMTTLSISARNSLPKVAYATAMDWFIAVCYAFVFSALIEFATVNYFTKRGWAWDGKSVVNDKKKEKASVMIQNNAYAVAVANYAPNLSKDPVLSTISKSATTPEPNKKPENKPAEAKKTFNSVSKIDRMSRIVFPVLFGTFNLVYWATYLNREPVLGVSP
T1 sequence (P28472 26-473 partner): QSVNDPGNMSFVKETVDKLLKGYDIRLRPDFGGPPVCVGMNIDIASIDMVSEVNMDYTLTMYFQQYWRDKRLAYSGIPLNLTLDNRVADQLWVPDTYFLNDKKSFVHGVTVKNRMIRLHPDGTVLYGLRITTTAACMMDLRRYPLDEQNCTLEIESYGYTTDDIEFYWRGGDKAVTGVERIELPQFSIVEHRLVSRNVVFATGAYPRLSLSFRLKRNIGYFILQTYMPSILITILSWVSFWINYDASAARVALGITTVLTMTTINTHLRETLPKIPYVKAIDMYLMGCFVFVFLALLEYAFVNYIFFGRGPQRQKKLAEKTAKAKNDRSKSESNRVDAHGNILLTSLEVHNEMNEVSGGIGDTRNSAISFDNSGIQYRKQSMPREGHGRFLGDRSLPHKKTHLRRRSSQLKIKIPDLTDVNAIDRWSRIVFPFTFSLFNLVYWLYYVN
T1 sequence (P18507 40-475): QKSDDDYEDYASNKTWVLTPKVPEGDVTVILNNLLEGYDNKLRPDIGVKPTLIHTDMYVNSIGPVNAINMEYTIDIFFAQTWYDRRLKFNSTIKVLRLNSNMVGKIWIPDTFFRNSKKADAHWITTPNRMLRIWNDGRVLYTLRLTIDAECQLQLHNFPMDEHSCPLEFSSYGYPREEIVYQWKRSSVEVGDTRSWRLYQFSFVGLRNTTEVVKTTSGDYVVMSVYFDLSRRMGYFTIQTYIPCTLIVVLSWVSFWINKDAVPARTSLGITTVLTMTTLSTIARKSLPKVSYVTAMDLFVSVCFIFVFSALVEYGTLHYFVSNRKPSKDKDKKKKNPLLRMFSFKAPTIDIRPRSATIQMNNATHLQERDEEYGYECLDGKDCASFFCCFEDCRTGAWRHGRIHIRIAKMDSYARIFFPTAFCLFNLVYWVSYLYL
Procedure, shortened: (§1)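 Human GABAA receptors expressed in Xenopus oocytes by cRNA injection (α:β:γ molar ratio ~1:1:10 for α1β2γ2, 1:1:1 for α2β3γ2), recorded 2-10 days later by two-electrode voltage clamp at −60 mV in ND-96, pH 7.5. Modulator preapplied 30 s before GABA at per-oocyte EC10. Peak-current percent potentiation over GABA alone, normalised to diazepam.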

[2] = target: T2, GABAA2 receptors (α2, β3, γ2 receptor subunits transfected into Sf9 cells) (Homo sapiens, UniProt P18507+P47869); experiment: GABAA2 Binding Method ([3H]-Flunitrazepam displacement); conditions: [3H]-Flunitrazepam ~2 nM, α2β3γ2 Sf9 membranes, 1 hr at 4° C.
T2 construct: host or cells: Sf9 cells (membranes)
T2 sequence (P47869 29-451): as the sequence (P47869 29-451) above
T2 sequence (P28472 26-473 partner): as the sequence (P28472 26-473 partner) above
T2 sequence (P18507 40-475): as the sequence (P18507 40-475) above
Procedure, shortened: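 Membranes from Sf9 cells expressing α2β3γ2 GABAA receptors incubated with ~2 nM (final) [3H]-flunitrazepam and test compound 1 h at 4 °C, then filtered on GF/B plates with cold-buffer washes. Flumazenil-defined controls; percent of control, IC50 and Ki calculated.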

[3] = target: T3, GABAA receptor α1β2γ2 (Homo sapiens, UniProt P14867+P18507); experiment: Two-electrode voltage-clamp potentiation of GABA EC10 current in Xenopus oocytes, GABAA1; type: cell-based; conditions: percentage potentiation of GABA EC10 current divided by that of diazepam
T3 construct: expressed in transfected cells; host or cells: Xenopus laevis oocytes injected with cRNA
T3 sequence (P14867 28-456): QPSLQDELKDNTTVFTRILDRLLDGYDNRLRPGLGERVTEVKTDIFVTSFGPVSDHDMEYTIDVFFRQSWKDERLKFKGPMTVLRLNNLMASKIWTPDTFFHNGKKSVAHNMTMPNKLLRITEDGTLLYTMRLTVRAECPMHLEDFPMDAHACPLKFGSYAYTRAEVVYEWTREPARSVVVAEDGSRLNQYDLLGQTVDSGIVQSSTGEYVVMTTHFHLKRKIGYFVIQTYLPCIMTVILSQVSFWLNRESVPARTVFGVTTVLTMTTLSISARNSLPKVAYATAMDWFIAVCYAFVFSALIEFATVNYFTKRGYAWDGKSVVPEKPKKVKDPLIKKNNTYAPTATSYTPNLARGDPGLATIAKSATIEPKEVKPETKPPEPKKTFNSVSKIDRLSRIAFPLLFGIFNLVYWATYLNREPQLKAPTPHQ
T3 sequence (P47870 25-512 partner limits assumed): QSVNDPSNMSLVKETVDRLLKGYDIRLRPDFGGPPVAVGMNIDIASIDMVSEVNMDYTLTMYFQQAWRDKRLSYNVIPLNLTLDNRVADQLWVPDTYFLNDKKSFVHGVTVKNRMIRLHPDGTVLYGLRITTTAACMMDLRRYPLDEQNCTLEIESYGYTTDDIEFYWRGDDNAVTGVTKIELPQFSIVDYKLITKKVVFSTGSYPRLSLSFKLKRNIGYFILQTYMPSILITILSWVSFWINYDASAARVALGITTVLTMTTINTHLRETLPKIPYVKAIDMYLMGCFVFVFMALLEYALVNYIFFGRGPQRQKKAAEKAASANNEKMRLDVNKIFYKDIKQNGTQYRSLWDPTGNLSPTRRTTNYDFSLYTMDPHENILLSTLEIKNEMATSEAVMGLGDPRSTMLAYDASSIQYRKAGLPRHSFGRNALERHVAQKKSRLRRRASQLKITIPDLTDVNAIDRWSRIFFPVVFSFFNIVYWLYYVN
T3 sequence (P18507 40-475): as the sequence (P18507 40-475) above
Procedure, shortened: as §1

SMILES	Relative Potentiation for GABAA2 [1]	Ki [2] [µM]	Relative Potentiation for GABAA1 [3]
CCN1Cc2nc3c(-c4ccc(OC)c(F)c4)cccc3c(N)c2C1=O [9-amino-2-ethyl-5-(3-fluoro-4-methoxyphenyl)-2,3-dihydro-1H-pyrrolo[3,4-b]quinolin-1-one]	0.065	0.0425	0.012
CCCN1Cc2nc3c(-c4cccc(C)c4)cccc3c(N)c2C1=O [9-amino-2-propyl-5-(3-methylphenyl)-2,3-dihydro-1H-pyrrolo[3,4-b]quinolin-1-one]	0.29	0.0446	0.38
CCCN1Cc2nc3c(-c4cc(C)nn4C)cccc3c(N)c2C1=O [9-amino-5-(1,3-dimethyl-1H-pyrazol-5-yl)-2-propyl-2,3-dihydro-1H-pyrrolo[3,4-b]quinolin-1-one]	0.57	0.0215	0.49
CCCN1Cc2nc3c(-c4ccc(OC)cc4OC)cccc3c(N)c2C1=O [9-amino-5-(2,4-dimethoxyphenyl)-2-propyl-2,3-dihydro-1H-pyrrolo[3,4-b]quinolin-1-one]	0.31	0.0498	0.25
CCCN1Cc2nc3c(-c4cc(Cl)ccc4Cl)cccc3c(N)c2C1=O [9-amino-5-(2,5-dichlorophenyl)-2-propyl-2,3-dihydro-1H-pyrrolo[3,4-b]quinolin-1-one]	0.32	0.0118	0.31
CCCN1Cc2nc3c(-c4cc(F)ccc4F)cccc3c(N)c2C1=O [9-amino-5-(2,5-difluorophenyl)-2-propyl-2,3-dihydro-1H-pyrrolo[3,4-b]quinolin-1-one]	0.33	0.0348	0.21
CCCN1Cc2nc3c(-c4cc(C)ccc4C)cccc3c(N)c2C1=O [9-amino-5-(2,5-dimethylphenyl)-2-propyl-2,3-dihydro-1H-pyrrolo[3,4-b]quinolin-1-one]	0.2	0.0568	0.22
COc1cccc(Cl)c1-c1cccc2c(N)c3c(nc12)CN(C1CC1)C3=O [9-amino-5-(2-chloro-6-methoxyphenyl)-2-cyclopropyl-2,3-dihydro-1H-pyrrolo[3,4-b]quinolin-1-one]	0.052	0.0149	−0.1
CCCN1Cc2nc3c(-c4cc(OC)ccc4F)cccc3c(N)c2C1=O [9-amino-5-(2-fluoro-5-methoxyphenyl)-2-propyl-2,3-dihydro-1H-pyrrolo[3,4-b]quinolin-1-one]	0.39	0.0125	0.39
CCCN1Cc2nc3c(-c4ccc(C)nc4F)cccc3c(N)c2C1=O [9-amino-5-(2-fluoro-6-methylpyridin-3-yl)-2-propyl-2,3-dihydro-1H-pyrrolo[3,4-b]quinolin-1-one]	0.37	0.0197	0.22
CCCN1Cc2nc3c(-c4cc(C)ccc4OC)cccc3c(N)c2C1=O [9-amino-5-(2-methoxy-5-methylphenyl)-2-propyl-2,3-dihydro-1H-pyrrolo[3,4-b]quinolin-1-one]	0.37	0.0472	0.17
CCCN1Cc2nc3c(-c4cccnc4OC)cccc3c(N)c2C1=O [9-amino-5-(2-methoxypyridin-3-yl)-2-propyl-2,3-dihydro-1H-pyrrolo[3,4-b]quinolin-1-one]	0.58	0.0421	0.36
CCCN1Cc2nc3c(-c4cccnc4C)cccc3c(N)c2C1=O [9-amino-5-(2-methylpyridin-3-yl)-2-propyl-2,3-dihydro-1H-pyrrolo[3,4-b]quinolin-1-one]	0.26	0.0114	0.22
CCCN1Cc2nc3c(-c4cccc(OC)c4)cccc3c(N)c2C1=O [9-amino-5-(3-methoxyphenyl)-2-propyl-2,3-dihydro-1H-pyrrolo[3,4-b]quinolin-1-one]	0.3	0.0629	0.31
CCCN1Cc2nc3c(-c4ccc(F)cc4OC)cccc3c(N)c2C1=O [9-amino-5-(4-fluoro-2-methoxyphenyl)-2-propyl-2,3-dihydro-1H-pyrrolo[3,4-b]quinolin-1-one]	0.2	0.0608	0.2
CCCN1Cc2nc3c(-c4cnccc4OC)cccc3c(N)c2C1=O [9-amino-5-(4-methoxypyridin-3-yl)-2-propyl-2,3-dihydro-1H-pyrrolo[3,4-b]quinolin-1-one]	0.62	0.0392	0.39
CCCN1Cc2nc3c(-c4cnccc4C)cccc3c(N)c2C1=O [9-amino-5-(4-methylpyridin-3-yl)-2-propyl-2,3-dihydro-1H-pyrrolo[3,4-b]quinolin-1-one]	0.34	0.0557	0.36
CCCN1Cc2nc3c(-c4cc(Cl)ccc4OC)cccc3c(N)c2C1=O [9-amino-5-(5-chloro-2-methoxyphenyl)-2-propyl-2,3-dihydro-1H-pyrrolo[3,4-b]quinolin-1-one]	0.54	0.0396	0.36
CCCN1Cc2nc3c(-c4cc(F)ccc4OC)cccc3c(N)c2C1=O [9-amino-5-(5-fluoro-2-methoxyphenyl)-2-propyl-2,3-dihydro-1H-pyrrolo[3,4-b]quinolin-1-one]	0.25	0.0803	0.19

These reach a lower Ki [2]. Values come first.

Relative Potentiation for GABAA2 [1]	Ki [2] [µM]	Relative Potentiation for GABAA1 [3]	SMILES
0.64	0.0103	0.45	COc1ccc(CN2Cc3nc4c(-c5cc(C)nn5C)cccc4c(N)c3C2=O)cc1 [9-amino-5-(1,3-dimethyl-1H-pyrazol-5-yl)-2-(4-methoxybenzyl)-2,3-dihydro-1H-pyrrolo[3,4-b]quinolin-1-one]
0.32	0.00682	0.18	COc1ccc(CN2Cc3nc4c(-c5cccnc5F)cccc4c(N)c3C2=O)cc1 [9-amino-5-(2-fluoropyridin-3-yl)-2-(4-methoxybenzyl)-2,3-dihydro-1H-pyrrolo[3,4-b]quinolin-1-one]
0.61	0.00663	0.44	CCCN1Cc2nc3c(-c4cc(C)cnc4Cl)cccc3c(N)c2C1=O [9-amino-5-(2-chloro-5-methylpyridin-3-yl)-2-propyl-2,3-dihydro-1H-pyrrolo[3,4-b]quinolin-1-one]
0.013	0.00485	−0.15	COc1cccc(Cl)c1-c1c(F)ccc2c(N)c3c(nc12)CN(C1CC1)C3=O [9-amino-5-(2-chloro-6-methoxyphenyl)-2-cyclopropyl-6-fluoro-2,3-dihydro-1H-pyrrolo[3,4-b]quinolin-1-one]
−0.02	0.0045	−0.09	CCN1Cc2nc3c(-c4c(F)cc(OC)cc4F)c(F)ccc3c(N)c2C1=O [9-amino-5-(2,6-difluoro-4-methoxyphenyl)-2-ethyl-6-fluoro-2,3-dihydro-1H-pyrrolo[3,4-b]quinolin-1-one]
0.064	0.00385	−0.038	CCN1Cc2nc3c(-c4ccc(F)cc4F)c(F)ccc3c(N)c2C1=O [9-amino-5-(2,4-difluorophenyl)-2-ethyl-6-fluoro-2,3-dihydro-1H-pyrrolo[3,4-b]quinolin-1-one]
0	0.00359	0.58	CCCN1Cc2nc3c(-c4cc(C)cnc4OC)cccc3c(N)c2C1=O [9-amino-5-(2-methoxy-5-methylpyridin-3-yl)-2-propyl-2,3-dihydro-1H-pyrrolo[3,4-b]quinolin-1-one]
0.41	0.00263	0.45	CCCN1Cc2nc3c(-c4ccc(C)nc4C)cccc3c(N)c2C1=O [9-amino-5-(2,6-dimethylpyridin-3-yl)-2-propyl-2,3-dihydro-1H-pyrrolo[3,4-b]quinolin-1-one]
0.051	0.00222	−0.15	COc1cccc(Cl)c1-c1cccc2c(N)c3c(nc12)CN(C1CCC1)C3=O [9-amino-5-(2-chloro-6-methoxyphenyl)-2-cyclobutyl-2,3-dihydro-1H-pyrrolo[3,4-b]quinolin-1-one]
0.038	0.00151	−0.04	CCN1Cc2nc3c(-c4ccccc4F)c(F)ccc3c(N)c2C1=O [9-amino-2-ethyl-6-fluoro-5-(2-fluorophenyl)-2,3-dihydro-1H-pyrrolo[3,4-b]quinolin-1-one]
0.05	0.00149	−0.04	CCN1Cc2nc3c(-c4ccc(OC)cc4F)c(F)ccc3c(N)c2C1=O [9-amino-2-ethyl-6-fluoro-5-(2-fluoro-4-methoxyphenyl)-2,3-dihydro-1H-pyrrolo[3,4-b]quinolin-1-one]
